Activity calls are given as the source filed them. The calls are words filed in the database; no cut-off is given here.
Legend:
Pseudomonas aeruginosa [1] = test: Antibacterial activity against Pseudomonas aeruginosa MTCC 2453 at 100 ug/ml by cup-plate method; type: functional; details: read-out: DIZ
Escherichia coli [2] = test: Antibacterial activity against Escherichia coli MTCC 739 by cup-plate method; type: functional, organism-based
Staphylococcus aureus [3] = test: Antibacterial activity against Staphylococcus aureus MTCC 96 at 200 ug/ml by cup-plate method; type: functional; details: read-out: DIZ
Bacillus subtilis [4] = test: Antibacterial activity against Bacillus subtilis MTCC 121 at 300 ug/ml by cup plate method; type: functional; details: read-out: DIZ
Staphylococcus aureus [5] = test: Antibacterial activity against Staphylococcus aureus MTCC 96 at 300 ug/ml by cup-plate method; type: functional; details: read-out: DIZ
Candida albicans = test: Antifungal activity against Candida albicans MTCC 227 at 50 to 300 ug/ml by cup-plate method; type: functional, organism-based
Pseudomonas aeruginosa [6] = test: Antibacterial activity against Pseudomonas aeruginosa MTCC 2453 at 200 ug/ml by cup-plate method; type: functional; details: read-out: DIZ
Escherichia coli [7] = test: Antibacterial activity against Escherichia coli MTCC 739 at 200 ug/ml by cup-plate method; type: functional; details: read-out: DIZ
Bacillus subtilis [8] = test: Antibacterial activity against Bacillus subtilis MTCC 121 at 100 ug/ml by cup plate method; type: functional; details: read-out: DIZ
Escherichia coli [9] = test: Antibacterial activity against Escherichia coli MTCC 739 at 100 ug/ml by cup-plate method; type: functional; details: read-out: DIZ
Escherichia coli [10] = test: Antibacterial activity against Escherichia coli MTCC 739 at 50 ug/ml by cup-plate method; type: functional; details: read-out: DIZ
Escherichia coli [11] = test: Antibacterial activity against Escherichia coli MTCC 739 at 300 ug/ml by cup-plate method; type: functional; details: read-out: DIZ
Staphylococcus aureus [12] = test: Antibacterial activity against Staphylococcus aureus MTCC 96 by cup-plate method; type: functional, organism-based
Bacillus subtilis [13] = test: Antibacterial activity against Bacillus subtilis MTCC 121 at 200 ug/ml by cup plate method; type: functional; details: read-out: DIZ
Pseudomonas aeruginosa [14] = test: Antibacterial activity against Pseudomonas aeruginosa MTCC 2453 at 50 ug/ml by cup-plate method; type: functional; details: read-out: DIZ
Bacillus subtilis [15] = test: Antibacterial activity against Bacillus subtilis MTCC 121 by cup plate method; type: functional, organism-based
Staphylococcus aureus [16] = test: Antibacterial activity against Staphylococcus aureus MTCC 96 at 100 ug/ml by cup-plate method; type: functional; details: read-out: DIZ
Bacillus subtilis [17] = test: Antibacterial activity against Bacillus subtilis MTCC 121 at 50 ug/ml by cup plate method; type: functional; details: read-out: DIZ
Pseudomonas aeruginosa [18] = test: Antibacterial activity against Pseudomonas aeruginosa MTCC 2453 at 300 ug/ml by cup-plate method; type: functional; details: read-out: DIZ
Pseudomonas aeruginosa [19] = test: Antibacterial activity against Pseudomonas aeruginosa MTCC 2453 by cup-plate method; type: functional, organism-based
Staphylococcus aureus [20] = test: Antibacterial activity against Staphylococcus aureus MTCC 96 at 50 ug/ml by cup-plate method; type: functional; details: read-out: DIZ

Row | SMILES | zone of inhibition at 100 µg/mL (Pseudomonas aeruginosa [1]) | Activity (Escherichia coli [2]) | zone of inhibition at 200 µg/mL (Staphylococcus aureus [3]) | zone of inhibition at 300 µg/mL (Bacillus subtilis [4]) | zone of inhibition at 300 µg/mL (Staphylococcus aureus [5]) | Activity (Candida albicans) | zone of inhibition at 200 µg/mL (Pseudomonas aeruginosa [6]) | zone of inhibition at 200 µg/mL (Escherichia coli [7]) | zone of inhibition at 100 µg/mL (Bacillus subtilis [8]) | zone of inhibition at 100 µg/mL (Escherichia coli [9]) | zone of inhibition at 50 µg/mL (Escherichia coli [10]) | zone of inhibition at 300 µg/mL (Escherichia coli [11]) | Activity (Staphylococcus aureus [12]) | zone of inhibition at 200 µg/mL (Bacillus subtilis [13]) | zone of inhibition at 50 µg/mL (Pseudomonas aeruginosa [14]) | Activity (Bacillus subtilis [15]) | zone of inhibition at 100 µg/mL (Staphylococcus aureus [16]) | zone of inhibition at 50 µg/mL (Bacillus subtilis [17]) | zone of inhibition at 300 µg/mL (Pseudomonas aeruginosa [18]) | Activity (Pseudomonas aeruginosa [19]) | further results
1 | O=C1N/C(=N\c2cccc(Cl)c2)S/C1=C\c1ccccc1 | 7 mm | Dose-dependent effect | 8 mm | 7 mm | 9 mm | inactive | 8 mm | 7 mm | 7 mm | 7 mm | 7 mm | 8 mm | Dose-dependent effect | 7 mm | 6 mm | Dose-dependent effect | 7 mm | 6 mm | 9 mm | Dose-dependent effect | zone of inhibition at 50 µg/mL (Staphylococcus aureus [20]): 6 mm
2 | O=C1N/C(=N\c2ccc(Cl)cc2)S/C1=C\c1cccc([N+](=O)[O-])c1 | 9 mm | Dose-dependent effect | 9 mm | 11 mm | 10 mm | inactive | 9 mm | 9 mm | 10 mm | 8 mm | 7 mm | 10 mm | Dose-dependent effect | 10 mm | 8 mm | Dose-dependent effect | 9 mm | 9 mm | 11 mm | Dose-dependent effect | zone of inhibition at 50 µg/mL (Staphylococcus aureus [20]): 8 mm
3 | O=C1N/C(=N\c2ccc(F)c(Cl)c2)S/C1=C\c1ccc(O)cc1 | 9 mm | Dose-dependent effect | 10 mm | 11 mm | 11 mm | inactive | 10 mm | 10 mm | 10 mm | 9 mm | 8 mm | 10 mm | Dose-dependent effect | 10 mm | 8 mm | Dose-dependent effect | 10 mm | 9 mm | 10 mm | Dose-dependent effect | zone of inhibition at 50 µg/mL (Staphylococcus aureus [20]): 8 mm
4 | O=C1N/C(=N\c2cccc(Cl)c2)S/C1=C\c1ccccc1Cl | 7 mm | Dose-dependent effect | 8 mm | 9 mm | 9 mm | inactive | 7 mm | 8 mm | 8 mm | 7 mm | 7 mm | 8 mm | Dose-dependent effect | 8 mm | 6 mm | Dose-dependent effect | 8 mm | 7 mm | 8 mm | Dose-dependent effect | zone of inhibition at 50 µg/mL (Staphylococcus aureus [20]): 7 mm
5 | O=C1N/C(=N\c2ccc(Cl)cc2)S/C1=C\c1ccccc1Cl | 9 mm | Dose-dependent effect | 9 mm | 10 mm | 10 mm | inactive | 9 mm | 10 mm | 8 mm | 9 mm | 9 mm | 9 mm | Dose-dependent effect | 9 mm | 9 mm | Dose-dependent effect | 8 mm | 8 mm | 9 mm | Dose-dependent effect | zone of inhibition at 50 µg/mL (Staphylococcus aureus [20]): 8 mm
6 | O=C1N/C(=N\c2ccc(F)c(Cl)c2)S/C1=C\c1ccccc1[N+](=O)[O-] | 9 mm | Dose-dependent effect | 13 mm | 13 mm | 14 mm | inactive | 10 mm | 11 mm | 12 mm | 9 mm | 8 mm | 12 mm | Dose-dependent effect | 13 mm | 8 mm | Dose-dependent effect | 12 mm | 10 mm | 11 mm | Dose-dependent effect | zone of inhibition at 50 µg/mL (Staphylococcus aureus [20]): 10 mm
7 | O=C1N/C(=N\c2cccc(Cl)c2)S/C1=C\c1ccc(Cl)cc1 | 8 mm | Dose-dependent effect | 9 mm | 10 mm | 10 mm | inactive | 8 mm | 9 mm | 8 mm | 9 mm | 7 mm | 9 mm | Dose-dependent effect | 10 mm | 7 mm | Dose-dependent effect | 8 mm | 7 mm | 8 mm | Dose-dependent effect | zone of inhibition at 50 µg/mL (Staphylococcus aureus [20]): 7 mm
8 | O=C1N/C(=N\c2ccc(F)c(Cl)c2)S/C1=C\c1cccc([N+](=O)[O-])c1 | 10 mm | Dose-dependent effect | 14 mm | 15 mm | 16 mm | inactive | 11 mm | 9 mm | 12 mm | 8 mm | 7 mm | 10 mm | Dose-dependent effect | 14 mm | 8 mm | Dose-dependent effect | 12 mm | 12 mm | 12 mm | Dose-dependent effect | zone of inhibition at 50 µg/mL (Staphylococcus aureus [20]): 11 mm

Source: ChEMBL document CHEMBL3044899, “Effect of chloro and fluoro groups on the antimicrobial activity of 2,5-disubstituted 4-thiazolidinones: a comparative study” (2012)
